From US10981911B2, “Imidazopyrrolopyridine as inhibitors of the JAK family of kinases” (Janssen Pharmaceutica NV, priority 2016, dated 2021)

What was measured:
Format in all cases: biochemical
[1] = target: JAK1-JH1JH2 (Homo sapiens (Human), UniProt P23458); experiment: Enzymatic inhibition assay (RapidFire HTMS), JAK1; settings: 12.5 μM ATP, 200 μM substrate; read-out: JAK1-JH2JH1 IC50
Source text: (§1) LC/MS grade Water and Acetonitrile (ACN), were purchased from HoneyWell, Burdick & Jackson (Muskegon, Mich., USA). Dimethylsulfoxide 99.8% (DMSO) and Trifluoroacetic Acid 99.5% (TFA) were purchased from EMD Chemical (Gibbstown, N.J., USA). Adenosine triphosphate (ATP), 4-Morpholinepropanesulfonic acid (MOPS), Magnesium chloride (MgCl2), ethylenediaminetetraacetic acid (EDTA), dithiothreitol (DTT), formic acid >95% (FA) and Tween-20 were purchased from Sigma (St Louis, Mo., USA). 384-well polypropylene plates, Cat #781280 were purchased from Greiner (Monroe, N.C.), RapidFire™ cartridge A C4 Column (Agilent Technologies, Santa Clara, Calif.).
(§2) The HTMS experiments were performed in positive ionization mode on a RapidFire 300 instrument (Agilent Technologies, Santa Clara, Calif.), coupled with an ABSiex QTrap 4000 system with an Electrospray Ionization source (RF-MS) (Concord, ON, Canada). […] The entire system was operated using the RapidFire software interfaced with Analyst software for the mass spectrometer.
(§3) 11-point dosing series were made for each compound by serially diluting 1:3 or 1:4 in DMSO, with point 12 being a DMSO control. From the serial dilution plates, sample was transferred to a 384 wells assay plate (#781280, Greiner, Monroe, N.C.) using Labcyte Echo (Sunnyvale, Calif.), or Biosero ATS (San Diego, Calif.). The compounds were tested in duplicate. Column 12 was used for positive controls, and column 24 contained negative controls with no enzyme added. A compound from our internal collection, with inhibitory activity for JAK isoforms, was used as a reference compound. The final concentration of DMSO was ≤0.25% in a 20 μL reaction. […] The Tyk2 enzyme was pre-incubated with 2 mM ATP for 30 min prior to the reaction initiation. Immediately after the addition of the enzyme to the reaction mixture, the plate was centrifuged at 1000 rpm for 1 minute and incubated at 25° C. for 45 minutes for JAK 3 and 90 minutes for JAK1, JAK2 and Tyk2. The reaction was quenched by the addition of 20 μL of 0.5% TFA containing 0.15 μM of internal standard peptide using Multidrop Combi reagent dispenser (Thermo Scientific, Waltham, Mass.). […] After the quench, the assay plate was centrifuged at 3000 rpm for 3 minutes and sealed with pierceable aluminum foil (Cat #06644-001, Agilent) using a PlateLoc (Agilent Technologies, Santa Clara, Calif.). The plates then were transferred on to the RapidFire for the MS analysis. Compound inhibition was assessed by a decrease of the phosphorylated product levels in sample wells compared to the non-inhibited enzyme reaction.
(§4) The sample analysis on the RapidFire was performed using a mobile phase A consisting of Water/TFA/FA (100:0.01:0.1, v/v/v), a mobile phase B consisting of ACN/Water/TFA/FA (80:20:0.01:0.1, v/v/v). […] The samples were aspirated directly from the 384 assay plate and delivered onto RF-MS microscale solid-phase C4 extraction cartridge (Type A). The undesired component such as salt, cofactor, detergent and large protein were washed out and the retained analytes (substrate, product and IS) were coeluted directly onto the ABSiex Qtrap 4000 system.

[2] = target: JAK2-JH1JH2 (Homo sapiens (Human), UniProt O60674); experiment: Enzymatic inhibition assay (RapidFire HTMS), JAK2; settings: 30 μM ATP, 40 μM substrate
Source text: as §1, §2, §3, §4

[3] = target: JAK3-JH1JH2 (Homo sapiens (Human), UniProt P52333); experiment: Enzymatic inhibition assay (RapidFire HTMS), JAK3; settings: 150 μM ATP, 40 μM substrate
Source text: as §1, §2
as §3, with “compound.” for “compound. The final concentration of DMSO was ≤0.25% in a 20 μL reaction.”
as §4

[4] = target: Tyk2-JH1JH2 (Homo sapiens (Human), UniProt P29597, C1142A/C936A); experiment: Enzymatic inhibition assay (RapidFire HTMS), Tyk2; settings: 50 μM ATP, 200 μM substrate
Source text: as §1, §2, §3, §4

JAK3-JH1JH2, sequence (P52333 512-1124): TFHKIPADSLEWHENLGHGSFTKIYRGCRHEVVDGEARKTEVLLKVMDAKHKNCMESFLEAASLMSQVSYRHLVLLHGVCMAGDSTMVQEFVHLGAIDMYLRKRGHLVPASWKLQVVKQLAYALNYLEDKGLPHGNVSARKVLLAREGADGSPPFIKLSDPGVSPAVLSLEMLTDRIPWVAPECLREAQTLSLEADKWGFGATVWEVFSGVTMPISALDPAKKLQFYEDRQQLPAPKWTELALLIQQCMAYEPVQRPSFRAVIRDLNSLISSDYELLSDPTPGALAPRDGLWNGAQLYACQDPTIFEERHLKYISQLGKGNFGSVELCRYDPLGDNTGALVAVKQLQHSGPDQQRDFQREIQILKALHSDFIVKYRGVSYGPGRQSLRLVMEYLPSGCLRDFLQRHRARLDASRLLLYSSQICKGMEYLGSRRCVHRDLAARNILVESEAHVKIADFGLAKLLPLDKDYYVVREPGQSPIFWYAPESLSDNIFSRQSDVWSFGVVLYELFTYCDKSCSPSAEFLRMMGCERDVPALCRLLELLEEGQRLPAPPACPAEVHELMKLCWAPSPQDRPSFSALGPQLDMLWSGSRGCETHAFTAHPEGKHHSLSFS
JAK1-JH1JH2, sequence (P23458 574-1154): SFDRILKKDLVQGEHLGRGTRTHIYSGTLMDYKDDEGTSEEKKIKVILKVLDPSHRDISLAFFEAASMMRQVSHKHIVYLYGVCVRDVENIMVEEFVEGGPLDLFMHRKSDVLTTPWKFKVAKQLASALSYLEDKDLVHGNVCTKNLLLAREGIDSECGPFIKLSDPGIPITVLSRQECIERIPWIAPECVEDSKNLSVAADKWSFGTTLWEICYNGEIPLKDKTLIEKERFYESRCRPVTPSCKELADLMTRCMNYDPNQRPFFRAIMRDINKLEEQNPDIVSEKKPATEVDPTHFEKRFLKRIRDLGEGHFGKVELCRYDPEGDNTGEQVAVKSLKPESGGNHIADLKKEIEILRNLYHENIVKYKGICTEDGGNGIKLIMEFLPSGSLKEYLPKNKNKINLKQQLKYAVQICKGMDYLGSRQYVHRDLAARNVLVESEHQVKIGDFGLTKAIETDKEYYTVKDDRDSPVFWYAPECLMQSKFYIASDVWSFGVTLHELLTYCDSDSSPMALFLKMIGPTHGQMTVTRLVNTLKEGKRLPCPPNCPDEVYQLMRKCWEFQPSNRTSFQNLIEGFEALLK
Tyk2-JH1JH2, sequence (P29597 580-1182 C936A/C1142A): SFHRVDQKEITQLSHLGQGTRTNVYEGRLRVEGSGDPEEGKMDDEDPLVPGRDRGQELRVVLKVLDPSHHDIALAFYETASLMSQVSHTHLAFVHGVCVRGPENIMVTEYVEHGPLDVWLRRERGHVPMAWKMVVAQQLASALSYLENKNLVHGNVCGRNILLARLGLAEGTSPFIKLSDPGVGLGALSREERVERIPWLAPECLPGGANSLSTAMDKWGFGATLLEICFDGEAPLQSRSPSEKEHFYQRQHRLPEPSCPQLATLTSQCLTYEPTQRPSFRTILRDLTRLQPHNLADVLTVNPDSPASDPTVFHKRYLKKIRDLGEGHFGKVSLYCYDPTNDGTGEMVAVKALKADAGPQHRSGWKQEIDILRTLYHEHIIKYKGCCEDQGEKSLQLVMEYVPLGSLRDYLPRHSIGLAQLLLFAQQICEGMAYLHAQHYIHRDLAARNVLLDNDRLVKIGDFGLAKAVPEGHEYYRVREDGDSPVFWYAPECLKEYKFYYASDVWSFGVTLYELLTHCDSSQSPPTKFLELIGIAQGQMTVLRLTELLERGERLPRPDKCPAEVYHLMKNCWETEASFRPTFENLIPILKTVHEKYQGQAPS
JAK2-JH1JH2, sequence (O60674 532-1132): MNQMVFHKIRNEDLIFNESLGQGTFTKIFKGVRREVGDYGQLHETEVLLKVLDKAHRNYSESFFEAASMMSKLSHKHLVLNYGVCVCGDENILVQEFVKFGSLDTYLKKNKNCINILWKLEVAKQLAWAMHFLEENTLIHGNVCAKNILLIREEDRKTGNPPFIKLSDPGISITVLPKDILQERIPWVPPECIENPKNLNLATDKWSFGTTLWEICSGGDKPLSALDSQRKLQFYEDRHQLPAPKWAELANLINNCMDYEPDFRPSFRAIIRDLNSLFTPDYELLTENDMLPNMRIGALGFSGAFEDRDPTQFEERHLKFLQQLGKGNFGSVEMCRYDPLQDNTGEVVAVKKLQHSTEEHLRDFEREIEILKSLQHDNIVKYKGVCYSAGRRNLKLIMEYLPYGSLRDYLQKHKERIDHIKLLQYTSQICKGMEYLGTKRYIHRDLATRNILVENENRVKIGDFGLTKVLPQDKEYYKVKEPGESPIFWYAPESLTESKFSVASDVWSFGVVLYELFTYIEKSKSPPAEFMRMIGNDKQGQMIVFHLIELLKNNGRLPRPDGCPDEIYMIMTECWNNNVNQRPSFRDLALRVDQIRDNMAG

Structure (SMILES)	IC50 [1]	IC50 [2]	IC50 [3]	IC50 [4]
N#CC[C@H]1CC[C@H](n2c(-c3nc[nH]n3)nc3cnc4[nH]ccc4c32)CC1 [Ex. 9, 2-((1r,4r)-4-(2-(1H-1,2,4-Triazol-3-yl)imidazo[4,5-d]pyrrolo[2,3-b]pyridin-1(6H)-yl)cyclohexyl)acetonitrile]	0.1 nM	0.3 nM	48.9 nM	1.6 nM
N#CC[C@H]1CC[C@H](n2c(CC(=O)N3CCC(O)CC3)nc3cnc4[nH]ccc4c32)CC1 [Ex. 12, 2-((1r,4r)-4-(2-(2-(4-Hydroxypiperidin-1-yl)-2-oxoethyl)imidazo[4,5-d]pyrrolo[2,3-b]pyridin-1(6H)-yl)cyclohexyl)acetonitrile]	0.1 nM	9.2 nM	99.4 nM	1.4 nM
N#CCCS(=O)(=O)NCc1nc2cnc3[nH]ccc3c2n1[C@H]1CC[C@H](CC#N)CC1 [Ex. 13, 2-Cyano-N-((1-((1r,4r)-4-(cyanomethyl)cyclohexyl)-1,6-dihydroimidazo[4,5-d]pyrrolo[2,3-b]pyridin-2-yl)methyl)ethanesulfonamide]	0.1 nM	7.1 nM	651 nM	3.3 nM
N#CC[C@H]1CC[C@H](NC(=O)Cc2nc3cnc4[nH]ccc4c3n2[C@H]2CC[C@H](CC#N)CC2)CC1 [Ex. 19, N-((1r,4r)-4-(Cyanomethyl)cyclohexyl)-2-(1-((1r,4r)-4-(cyanomethyl)cyclohexyl)-1,6-dihydroimidazo[4,5-d]pyrrolo[2,3-b]pyridin-2-yl)acetamide]	0.1 nM	2.4 nM	31.8 nM	4.4 nM
N#CC[C@H]1CC[C@H](n2c(C(=O)N3CCC(O)(c4ccccn4)CC3)nc3cnc4[nH]ccc4c32)CC1 [Ex. 88, 2-((1r,4r)-4-(2-(4-Hydroxy-4-(pyridin-2-yl)piperidine-1-carbonyl)imidazo[4,5-d]pyrrolo[2,3-b]pyridin-1(6H)-yl)cyclohexyl)acetonitrile]	0.4 nM	43.4 nM		49.5 nM
CCOP(=O)(Cc1ccc(NC(=O)Cc2nc3cnc4[nH]ccc4c3n2[C@H]2CC[C@H](CC#N)CC2)cc1)OCC [Ex. 108, Diethyl 4-(2-(1-((1r,4r)-4-(cyanomethyl)cyclohexyl)-1,6-dihydroimidazo[4,5-d]pyrrolo[2,3-b]pyridin-2-yl)acetamido)benzylphosphonate]	0.6 nM	3.8 nM		7.1 nM
C[Si](C)(C)[C@H]1CC[C@@H](NC(=O)Cc2nc3cnc4[nH]ccc4c3n2[C@H]2CC[C@H](CC#N)CC2)CC1 [Ex. 135, 2-(1-((1r,4r)-4-(Cyanomethyl)cyclohexyl)-1,6-dihydroimidazo[4,5-d]pyrrolo[2,3-b]pyridin-2-yl)-N-((1S,4S)-4-(trimethylsilyl)cyclohexyl)acetamide]	0.8 nM	4 nM		8.7 nM
CC(C)(C)COC(=O)NCc1nc2cnc3[nH]ccc3c2n1[C@H]1CC[C@H](CC#N)CC1 [Ex. 154, Neopentyl ((1-((1r,4r)-4-(Cyanomethyl)cyclohexyl)-1,6-dihydroimidazo[4,5-d]pyrrolo[2,3-b]pyridin-2-yl)methyl)carbamate]	1.2 nM		408 nM	16.1 nM
C[Si](C)(C)[C@H]1CC[C@H](NC(=O)Cc2nc3cnc4[nH]ccc4c3n2[C@H]2CC[C@H](CC#N)CC2)CC1 [Ex. 167, 2-(1-((1r,4r)-4-(Cyanomethyl)cyclohexyl)-1,6-dihydroimidazo[4,5-d]pyrrolo[2,3-b]pyridin-2-yl)-N-((1r,4r)-4-(trimethylsilyl)cyclohexyl)acetamide]	1.9 nM	20.8 nM		25.5 nM

The remaining lines, values ahead:

IC50 [1]	IC50 [2]	IC50 [3]	IC50 [4]	Structure (SMILES)
0.1 nM	0.6 nM	13.3 nM	0.9 nM	N#CC[C@H]1CC[C@H](n2c(CC(=O)Nc3ccc(CO)cc3)nc3cnc4[nH]ccc4c32)CC1 [Ex. 7, 2-(1-((1r,4r)-4-(Cyanomethyl)cyclohexyl)-1,6-dihydroimidazo[4,5-d]pyrrolo[2,3-b]pyridin-2-yl)-N-(4-(hydroxymethyl)phenyl)acetamide]
0.1 nM	0.5 nM	12.9 nM	0.7 nM	N#CCc1ccc(NC(=O)Cc2nc3cnc4[nH]ccc4c3n2[C@H]2CC[C@H](CC#N)CC2)cc1 [Ex. 8, 2-(1-((1r,4r)-4-(Cyanomethyl)cyclohexyl)-1,6-dihydroimidazo[4,5-d]pyrrolo[2,3-b]pyridin-2-yl)-N-(4-(cyanomethyl)phenyl)acetamide]
0.1 nM	1.8 nM	43.7 nM	2.8 nM	N#CC[C@H]1CC[C@H](n2c(CC(=O)NCc3ccncn3)nc3cnc4[nH]ccc4c32)CC1 [Ex. 14, 2-(1-((1r,4r)-4-(Cyanomethyl)cyclohexyl)-1,6-dihydroimidazo[4,5-d]pyrrolo[2,3-b]pyridin-2-yl)-N-(pyrimidin-4-ylmethyl)acetamide]
0.1 nM	1.2 nM	65.8 nM	1.4 nM	[H]/N=C(\c1ccccc1)N(O)Cc1nc2cnc3[nH]ccc3c2n1[C@H]1CC[C@H](CC#N)CC1 [Ex. 17A, (E)-N-((1-((1r,4r)-4-(Cyanomethyl)cyclohexyl)-1,6-dihydroimidazo[4,5-d]pyrrolo[2,3-b]pyridin-2-yl)methyl)-N-hydroxybenzimidamide]
0.5 nM	4.5 nM	102 nM	2.9 nM	[H]/N=C(/c1ccccc1)N(O)Cc1nc2cnc3[nH]ccc3c2n1[C@H]1CC[C@H](CC#N)CC1 [Ex. 17B, (Z)—N-((1-((1r,4r)-4-(Cyanomethyl)cyclohexyl)-1,6-dihydroimidazo[4,5-d]pyrrolo[23-b]pyridin-2-yl)methyl)-N-hydroxybenzimidamide]
0.1 nM	35.3 nM	540 nM	6.4 nM	N#CC[C@H]1CC[C@H](n2c(CC(=O)N3CC(O)C3)nc3cnc4[nH]ccc4c32)CC1 [Ex. 18, 2-((1r,4r)-4-(2-(2-(3-Hydroxyazetidin-1-yl)-2-oxoethyl)imidazo[4,5-d]pyrrolo[2,3-b]pyridin-1(6H)-yl)cyclohexyl)acetonitrile]
0.1 nM	1.2 nM	20.5 nM	1.9 nM	N#CC[C@H]1CC[C@H](n2c(CC(=O)Nc3ccccc3)nc3cnc4[nH]ccc4c32)CC1 [Ex. 20, 2-(1-((1r,4r)-4-(Cyanomethyl)cyclohexyl)-1,6-dihydroimidazo[4,5-d]pyrrolo[2,3-b]pyridin-2-yl)-N-phenylacetamide]
